According to patent US11072634B2, “Inhibitors of transglutaminases” (Zedira GmbH, priority 2016, dated 2021):

Experiments:
CaCo2 and Huh7 cells = assay: Cytotoxicity of transglutaminase inhibitors (BrdU and EZ4U); type: cell-based, human; settings: highest concentration measured 1 mM
Method: The following cell lines are used for determination of cytotoxicity: • CaCo2 (human colon carcinoma cell line) • Huh7 (human liver carcinoma cell line).
Cells are cultivated in DMEM/10% FCS at 37° C. and 5% CO2 in a 96 well plate with an initial seeding density of 2×10^4 cells/well.
Transglutaminase inhibitors are added to the cells with final concentrations from 0.1 μM to 1 mM one hour after seeding. The different inhibitor dilutions are prepared in DMSO, resulting in a final concentration of 1% (v/v) DMSO in every well (2 μl inhibitor in 200 μl cell culture medium). Cycloheximide (2.5 μg/ml) and Camptothecin (0.2 μg/ml) are used as control compounds. All measurements are performed in triplicates.
Cytotoxicity of transglutaminase inhibitors is evaluated with two different assays:
Determination of proliferation using Cell Proliferation ELISA, BrdU (Roche, Cat. No. 11647229001).
After 24 h of incubation with inhibitors or controls, BrdU is added to the cells. After further incubation for 18 h, the cells are fixed and cellular DNA becomes denatured. […] Substrate solution is added and absorbance at 450 nm is recorded. […]
After 48 h of incubation with inhibitors or controls, the tetrazolium substrate is added to the cells. Substrate turnover by the cells is measured over two hours at 450 nm (using 630 nm was reference wavelength).

TG2 = target: T1, TG2 (Rattus norvegicus, UniProt Q9WVJ6); assay: TG2 activity in NRK52E cell homogenates (Tissue Transglutaminase Pico-Assay Kit); type: cell-based; settings: 6/24/36 mM glucose, 10-100 μM inhibitor
T1 construct: endogenous in cells; host or cells: NRK52E
T1 sequence (Q9WVJ6 1-686): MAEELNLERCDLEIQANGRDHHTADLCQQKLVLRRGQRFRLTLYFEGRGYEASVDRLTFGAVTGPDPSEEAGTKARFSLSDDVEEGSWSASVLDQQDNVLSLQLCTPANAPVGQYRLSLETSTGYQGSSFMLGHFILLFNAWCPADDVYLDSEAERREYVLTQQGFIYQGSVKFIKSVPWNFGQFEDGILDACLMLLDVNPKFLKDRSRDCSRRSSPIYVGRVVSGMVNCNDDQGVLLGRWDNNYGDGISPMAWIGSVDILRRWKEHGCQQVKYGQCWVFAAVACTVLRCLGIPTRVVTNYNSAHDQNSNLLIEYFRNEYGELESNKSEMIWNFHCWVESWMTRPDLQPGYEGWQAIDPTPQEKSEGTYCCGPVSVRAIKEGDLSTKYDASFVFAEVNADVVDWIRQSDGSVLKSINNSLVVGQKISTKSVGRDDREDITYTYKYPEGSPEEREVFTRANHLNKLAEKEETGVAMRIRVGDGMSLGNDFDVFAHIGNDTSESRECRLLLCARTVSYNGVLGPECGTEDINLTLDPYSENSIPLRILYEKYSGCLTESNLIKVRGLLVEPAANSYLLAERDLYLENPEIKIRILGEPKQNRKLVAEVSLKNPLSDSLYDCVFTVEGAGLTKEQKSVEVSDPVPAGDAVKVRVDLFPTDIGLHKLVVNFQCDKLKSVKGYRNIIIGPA
Method: (§1) Fibrosis is a hallmark in diabetic nephropathy and chronic kidney diseases. Proximal tubular epithelial cells show increased TG2 activity and increased extracellular matrix proteins (ECM) accumulation under hyperglycemic conditions. ECM accumulation is a hall mark of fibrosis. […] TG2-activity and ECM-accumulation was measured. Rattus norvegicus kidney derived cell line NRK52E was grown at 37° C. in a humidified atmosphere at 5% (v/v) CO2 in DMEM (Dulbecco's modified Eagle's medium) containing 100 μg/mL streptomycin, 100 units/ml penicillin, […], and 10% (v/v) fetal calf serum. For simulation of normal physiological conditions 6 mM D-glucose were added to the medium, while addition of 24 mM and 36 mM D-glucose simulated hyperglycemic conditions. Reversible TG2 inhibitor E06 in the concentrations indicated in FIG. 1A was added at the time of plating to the medium. Reversible TG2 inhibitor E22 in the concentrations indicated in FIG. 2A was added at the time of plating to the medium.
TG2-activity was determined in cell homogenates. […]
TG2-activity was measured using the TG2-selective Tissue Transglutaminase Pico-Assay Kit (#M003, Zedira, Darmstadt, Germany) according to the manufacturer's instructions. […]

NRK52E cells = assay: Extracellular matrix protein deposition of NRK52E cells (DC-protein-assay); type: cell-based, Rattus norvegicus; settings: hyperglycemic glucose concentrations
Method: as §1
For the determination of extracellular matrix proteins (ECM) deposition, cells grown in 10 cm Petri-dishes were removed with 1 mL sodium deoxycholate (0.1%) -EDTA (2 mM)-solution. ECM proteins remaining on the plate were solubilized by digestion with trypsin (0.2 mg/mL) -EDTA (2 mM) solution. […] Protein concentration was determined using the DC-protein-assay (BioRad, #5000111).

Row | SMILES | no influence on cell proliferation or metabolic activity up to (CaCo2 and Huh7 cells) [mM] | TG2 activity determined in the cell homogenates (TG2) | increase of ECM (extracellular matrix protein deposition) (NRK52E cells)
1 | COC(=O)[C@H](CC(C)C)NC(=O)[C@@H]1CCCN1C(=O)[C@@H](NC(=O)[C@H](CCC(=O)C(N)=O)NC(=O)OCc1ccccc1)C(C)C [Compound E02, (S)-methyl 2-((S)-1-((S)-2-((S)-6-amino-2-(benzyloxycarbonylamino)-5,6-dioxo-hexanamido)-3-methylbutanoyl)pyrrolidine-2-carboxamido)-4-methylpentanoate] | > 1 | – | –
2 | CC(=O)N[C@@H](CCC(=O)C(N)=O)C(=O)N1CCN(c2ccccc2Cl)CC1 [Compound E06, (S)-5-acetamido-6-(4-(2-chlorophenyl)piperazin-1-yl)-2,6-dioxohexanamide] | – | decreases | reduced in a dose dependent manner
3 | CCCCCNC(=O)C(=O)CC[C@H](NC(=O)[C@@H]1CCCN1C(C)=O)C(=O)Nc1cccn(CC(=O)NCC(CC)CC)c1=O [Compound E22, (S)-2-((S)-1-acetylpyrrolidine-2-carboxamido)-N1-(1-(2-(2-ethylbutylamino)-2-oxoethyl)-2-oxo-1,2-dihydropyridin-3-yl)-5-oxo-N6-pentylhexanediamide] | – | decreases | reduced in a dose dependent manner
